How the values were obtained:
Assay type in all cases: in vivo
[1] = test system: Vetch Aphid (Megoura viciae); assay: Activity against Vetch Aphid (Megoura viciae), bean leaf disk microtiterplate test; conditions: foliar, 144 h, bean leaf disks sprayed, adult aphids, 6 days, compared to 0% mortality of untreated controls
Method: 2.1 Activity against Vetch Aphid (Megoura viciae)
The active compounds were formulated in DMSO/water (1:3). Bean leaf disks were placed into microtiterplates filled with 0.8% agar-agar and 2.5 ppm OPUS™. The leaf disks were sprayed with 2.5 μl of the test solution and 5 to 8 adult aphids were placed into the microtiterplates which were then closed and kept at 22-24° C. and 35-45% under fluorescent light for 6 days. Mortality was assessed on the basis of vital, reproduced aphids. Tests were replicated 2 times.

[2] = test system: Brown Planthopper (nilaparvata lugens); assay: Activity against Brown Planthopper (nilaparvata lugens), sprayed rice plants; conditions: assessed 24, 48 and 72 hours after treatment, in comparison with untreated controls
Method: 2.4 Activity against Brown Planthopper (nilaparvata lugens)
The active compounds were formulated as a 20:80 acetone:water solution. Surfactant (Alkamuls EL 620) was added at the rate of 0.1% (vol/vol).
Potted rice plants of 3-4 weeks of age are sprayed with 10 ml of the test solution using air driven hand atomizer (Devillbis atomizer) at 1.7 bar. The treated plants are allowed to dry for about 1 hour and covered with Mylar cages. The plants are inoculated with 10 adults of the specie (5 male and 5 females) and kept at 25-27° C. and 50-60% humidity for 3 days. Mortality is assed after 24, 48 and 72 hours after treatment. Dead insects are usually found in the water surface. Each treatment is replicated once.

[3] = test system: Cotton Aphid (Aphis gossypii); assay: Activity against Cotton Aphid (Aphis gossypii), cotton cotyledon dip test; conditions: 120 h, cotton cotyledons dipped, mortality counts after 5 days
From the text: 2.2 Activity against Cotton Aphid (Aphis gossypii)
The active compounds were formulated in acetone/water (1:1) and 100 ppm Kinetic™ surfactant. Cotton plants at the cotyledon stage (one plant per pot) were infested by placing a heavily infested leaf from the main colony on top of each cotyledon. The aphids were allowed to transfer to the host plant overnight, and the leaf used to transfer the aphids was removed. The cotyledons were dipped in the test solution and allowed to dry. After 5 days, mortality counts were made.

[4] = test system: Green Peach Aphid (Myzus persicae); assay: Activity against Green Peach Aphid (Myzus persicae), pepper plant leaf dip test; conditions: foliar, 120 h, pepper plant leaves dipped, after 5 days, in comparison with untreated controls
Method: 2.3. Activity against Green Peach Aphid (Myzus persicae)
Pepper plants in the 2nd leaf-pair stage (variety ‘California Wonder’) are infested with approximately 40 laboratory-reared aphids by placing infested leaf sections on top of the test plants. The leaf sections are removed after 24 hours. The leaves of the intact plants are dipped into gradient solutions of the test compound. Aphid mortality on the treated plants, relative to mortality on check plants, is determined after 5 days.

Cc1cccc(CN(NC2=NCCS2)c2cccc(Cl)c2Cl)c1 [Example 7, N-(2,3-Dichloro-phenyl)-N′-(4,5-dihydro-thiazol-2-yl)-N-(3-methyl-benzyl)-hydrazine]
mortality at 2500 ppm [1]: > 75%
mortality at 300 ppm [2]: ≥ 50%
mortality at 300 ppm [3]: > 50%
mortality at 300 ppm [4]: > 50%

CC(C)=CCN(NC1=NCCS1)c1cccc(C)c1C [Example 30, N′-(4,5-Dihydro-thiazol-2-yl)-N-(2,3-dimethyl-phenyl)-N-(3-methyl-but-2-enyl)-hydrazine]
mortality at 2500 ppm [1]: > 75%

— patent US20100010058A1, “Azoline Compounds for Combating Arthropod Pests” (BASF SE, priority 2006, published 2010)
